Measured values from the NIST ThermoML archive (doi:10.1016/j.jct.2011.10.014).
Numbers after ± are expanded uncertainties.

Assay: molar heat capacity at constant pressure
Details: 101.33 kPa, Crystal, Vacuum adiabatic calorimetry

O=C([O-])[O-].[Pb+2] [lead(II) carbonate]
Details	molar heat capacity at constant pressure [J/K/mol]
4.385 K	0.052 ± 0.0081
4.419 K	0.0555 ± 0.0081
4.738 K	0.06322 ± 0.0082
4.754 K	0.06377 ± 0.0082
5 K	0.0763 ± 0.011
5.09 K	0.08024 ± 0.0083
5.104 K	0.08019 ± 0.0083
5.342 K	0.09726 ± 0.0084
5.363 K	0.09954 ± 0.0085
5.585 K	0.1145 ± 0.0086
5.612 K	0.1163 ± 0.0086
5.83 K	0.1316 ± 0.0088
5.868 K	0.1342 ± 0.0088
6.078 K	0.1519 ± 0.0092
6.126 K	0.1554 ± 0.0092
6.413 K	0.1893 ± 0.0099
6.471 K	0.1928 ± 0.01
6.838 K	0.2414 ± 0.011
6.899 K	0.256 ± 0.011
7.267 K	0.3073 ± 0.013
7.34 K	0.322 ± 0.013
7.699 K	0.3863 ± 0.015
7.78 K	0.4013 ± 0.015
8.134 K	0.4809 ± 0.017
8.222 K	0.5005 ± 0.018
8.575 K	0.5882 ± 0.02
8.668 K	0.606 ± 0.02
9.015 K	0.7106 ± 0.023
9.108 K	0.7478 ± 0.024
9.458 K	0.85 ± 0.027
9.558 K	0.8902 ± 0.028
9.903 K	1.01 ± 0.032
10 K	1.048 ± 0.018
10.01 K	1.055 ± 0.033
10.57 K	1.286 ± 0.04
10.68 K	1.33 ± 0.041
11.46 K	1.695 ± 0.051
11.57 K	1.751 ± 0.053
12.36 K	2.155 ± 0.065
12.47 K	2.216 ± 0.066
13.27 K	2.654 ± 0.079
13.38 K	2.746 ± 0.082
14.19 K	3.244 ± 0.096
14.31 K	3.33 ± 0.098
15 K	3.776 ± 0.036
15.13 K	3.866 ± 0.11
15.25 K	3.962 ± 0.12
16.07 K	4.511 ± 0.13
16.2 K	4.595 ± 0.13
17.03 K	5.162 ± 0.15
17.16 K	5.276 ± 0.15
17.99 K	5.902 ± 0.17
18.12 K	6.01 ± 0.18
18.95 K	6.635 ± 0.19
19.09 K	6.747 ± 0.2
19.93 K	7.37 ± 0.21
20 K	7.42 ± 0.052
20.06 K	7.466 ± 0.22
21.41 K	8.521 ± 0.25
21.54 K	8.639 ± 0.25
23.39 K	10.08 ± 0.29
23.53 K	10.19 ± 0.29
25 K	11.38 ± 0.06
25.4 K	11.68 ± 0.34
27.41 K	13.32 ± 0.38
29.43 K	14.96 ± 0.43
30 K	15.38 ± 0.07
31.45 K	16.55 ± 0.48
33.46 K	18.13 ± 0.52
35 K	19.37 ± 0.08
35.48 K	19.73 ± 0.57
36.7 K	20.7 ± 0.59
37.49 K	21.32 ± 0.61
38.5 K	22.12 ± 0.64
40 K	23.28 ± 0.09
40.51 K	23.65 ± 0.12
42.52 K	25.25 ± 0.13
44.53 K	26.66 ± 0.14
45 K	27.01 ± 0.09
46.54 K	28.07 ± 0.15
48.55 K	29.49 ± 0.15
50 K	30.59 ± 0.1
50.55 K	30.94 ± 0.16
52.55 K	32.41 ± 0.17
54.56 K	33.8 ± 0.17
55 K	33.98 ± 0.11
56.56 K	35.05 ± 0.18
58.57 K	36.13 ± 0.18
60 K	37.15 ± 0.11
60.52 K	37.48 ± 0.19
62.4 K	38.61 ± 0.2
64.2 K	39.65 ± 0.2
65 K	40.1 ± 0.12
65.95 K	40.66 ± 0.21
67.63 K	41.57 ± 0.21
69.27 K	42.35 ± 0.21
70 K	42.8 ± 0.13
71.59 K	43.59 ± 0.22
74.62 K	45.09 ± 0.23
75 K	45.29 ± 0.13
77.67 K	46.51 ± 0.23
79.9 K	47.55 ± 0.24
80 K	47.58 ± 0.14
80.72 K	47.85 ± 0.14
83.04 K	48.9 ± 0.14
85 K	49.68 ± 0.14
86.1 K	50.14 ± 0.15
89.18 K	51.33 ± 0.15
90 K	51.61 ± 0.25
92.25 K	52.45 ± 0.21
95 K	53.38 ± 0.25
95.34 K	53.5 ± 0.21
98.43 K	54.49 ± 0.22
100 K	55 ± 0.26
101.53 K	55.5 ± 0.22
104.63 K	56.35 ± 0.22
107.75 K	57.22 ± 0.22
110 K	57.87 ± 0.26
110.87 K	58.11 ± 0.22
114 K	58.89 ± 0.22
117.14 K	59.63 ± 0.23
120 K	60.33 ± 0.26
120.28 K	60.41 ± 0.23
123.43 K	61.11 ± 0.23
126.59 K	61.8 ± 0.23
129.77 K	62.5 ± 0.23
130 K	62.53 ± 0.26
132.94 K	63.15 ± 0.23
136.13 K	63.79 ± 0.23
139.31 K	64.43 ± 0.23
140 K	64.55 ± 0.26
142.51 K	65.03 ± 0.24
145.71 K	65.61 ± 0.24
148.92 K	66.19 ± 0.24
150 K	66.42 ± 0.27
152.13 K	66.84 ± 0.24
155.35 K	67.35 ± 0.24
158.57 K	67.88 ± 0.24
160 K	68.14 ± 0.27
161.81 K	68.4 ± 0.24
165.05 K	68.98 ± 0.24
168.31 K	69.49 ± 0.24
170 K	69.74 ± 0.27
171.58 K	70.05 ± 0.24
174.85 K	70.51 ± 0.25
178.14 K	70.92 ± 0.25
180 K	71.28 ± 0.27
181.44 K	71.38 ± 0.25
184.74 K	71.87 ± 0.25
188.04 K	72.41 ± 0.25
190 K	72.72 ± 0.27
191.34 K	72.91 ± 0.25
194.61 K	73.4 ± 0.25
197.88 K	73.88 ± 0.25
200 K	74.07 ± 0.27
201.13 K	74.3 ± 0.25
204.38 K	74.74 ± 0.26
207.61 K	75.11 ± 0.26
210 K	75.37 ± 0.28
210.84 K	75.52 ± 0.26
214.06 K	75.82 ± 0.26
217.25 K	76.33 ± 0.26
220 K	76.66 ± 0.28
220.45 K	76.69 ± 0.26
223.63 K	77.07 ± 0.26
226.8 K	77.37 ± 0.26
